Assay results published in patent US12396959B2, “Thermoresponsive hydrogel containing polymer microparticles for noninvasive ocular drug delivery” (University of Pittsburgh—Of the Commonwealth System of …, priority 2013, dated 2025).

Assays:
[1] = in vivo; cited from earlier work
[2] = tested on: New Zealand White rabbits; assay: Post-mortem T1-weighted MRI after intravitreal injection of Gd-DOTA in thermoresponsive hydrogel; type: in vivo, rabbit; details: 24 h after intravitreal injection
Method: Scans were performed within one hour of sacrifice. Soluble Gd-DOTA without MP encapsulation was largely cleared from the injection site at 24 h, with only 56% and 59% signal intensity (relative to nearby muscle tissue) in the vitreous and anterior chamber, respectively. […] The spatiotemporal distribution of Gd-DOTA into the rest of the eye will also provide valuable data for future controlled release formulations of other ocular therapeutics, such as those targeting the posterior segment of the eye.

[3] = Loading and release of other drugs from microparticles embedded within the gel; type: physicochemical
Source text: The loading and release of other drugs (moxiflxacin and vancomycin) with the microparticles embedded within the gel has also been confirmed.

Brimonidine tartrate [BT]
ocular half-life [1]: 28.2 min

O=C([O-])CN1CCN(CC(=O)[O-])CCN(CC(=O)O)CCN(CC(=O)[O-])CC1.[Gd+3] [Soluble Gd-DOTA, gadolinium-tetraazocyclododecanetetraacetic acid]
signal intensity relative to nearby muscle tissue, anterior chamber [2]: 59%
signal intensity relative to nearby muscle tissue, vitreous [2]: 56%

O=C([O-])CN(CCN(CC(=O)[O-])CC(=O)O)CCN(CC(=O)[O-])CC(=O)O.[Gd+3] [Gd-DTPA]
ocular half-life [1]: 28.08 min

CN[C@H](CC(C)C)C(=O)N[C@H]1C(=O)N[C@@H](CC(N)=O)C(=O)N[C@H]2C(=O)N[C@H]3C(=O)N[C@H](C(=O)N[C@H](C(=O)O)c4cc(O)cc(O)c4-c4cc3ccc4O)[C@H](O)c3ccc(c(Cl)c3)Oc3cc2cc(c3O[C@@H]2O[C@H](CO)[C@@H](O)[C@H](O)[C@H]2O[C@H]2C[C@](C)(N)[C@H](O)[C@H](C)O2)Oc2ccc(cc2Cl)[C@H]1O [vancomycin]
loading and release with microparticles embedded within the gel [3]: confirmed
